Reference: ChEMBL document CHEMBL4480364, “Discovery of monoamine oxidase inhibitors by medicinal chemistry approaches” (Medchemcomm, 2019)
Blank lines part the entries; values can stand above or below the molecule they belong to.

Legend:
[1] = target: T1, Amine oxidase [flavin-containing] A (Homo sapiens, UniProt P21397); assay: Inhibition of recombinant human MAOA using kynuramine as substrate after 30 mins by fluorescence assay
T1 sequence (P21397 whole entry): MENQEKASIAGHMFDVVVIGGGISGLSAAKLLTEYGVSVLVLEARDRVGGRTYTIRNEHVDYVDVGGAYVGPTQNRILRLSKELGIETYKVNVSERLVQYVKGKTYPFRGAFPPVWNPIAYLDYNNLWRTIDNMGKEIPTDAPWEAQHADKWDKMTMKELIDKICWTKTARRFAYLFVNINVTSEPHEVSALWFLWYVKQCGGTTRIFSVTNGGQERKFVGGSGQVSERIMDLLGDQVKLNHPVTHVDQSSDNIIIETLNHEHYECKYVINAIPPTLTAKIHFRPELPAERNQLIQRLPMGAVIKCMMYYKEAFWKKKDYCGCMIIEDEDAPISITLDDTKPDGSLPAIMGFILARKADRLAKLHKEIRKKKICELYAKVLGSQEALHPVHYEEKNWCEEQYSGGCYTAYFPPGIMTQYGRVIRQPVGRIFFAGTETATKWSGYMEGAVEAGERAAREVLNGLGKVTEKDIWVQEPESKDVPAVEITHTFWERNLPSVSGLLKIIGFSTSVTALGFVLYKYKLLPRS

[2] = target: T1, Amine oxidase [flavin-containing] A; assay: Inhibition of recombinant human MAOA using p-tyramine as substrate after 15 mins by Amplex Red dye-based fluorometric method
Homo sapiens [3] = organism: Homo sapiens; assay: Selectivity index, ratio of Ki for recombinant human MAOA to Ki for recombinant human MAOB
[4] = target: T2, Amine oxidase [flavin-containing] B (Homo sapiens, UniProt P27338); assay: Inhibition of recombinant human MAOB using p-tyramine as substrate after 15 mins by Amplex Red dye-based fluorometric method
T2 sequence (P27338 whole entry): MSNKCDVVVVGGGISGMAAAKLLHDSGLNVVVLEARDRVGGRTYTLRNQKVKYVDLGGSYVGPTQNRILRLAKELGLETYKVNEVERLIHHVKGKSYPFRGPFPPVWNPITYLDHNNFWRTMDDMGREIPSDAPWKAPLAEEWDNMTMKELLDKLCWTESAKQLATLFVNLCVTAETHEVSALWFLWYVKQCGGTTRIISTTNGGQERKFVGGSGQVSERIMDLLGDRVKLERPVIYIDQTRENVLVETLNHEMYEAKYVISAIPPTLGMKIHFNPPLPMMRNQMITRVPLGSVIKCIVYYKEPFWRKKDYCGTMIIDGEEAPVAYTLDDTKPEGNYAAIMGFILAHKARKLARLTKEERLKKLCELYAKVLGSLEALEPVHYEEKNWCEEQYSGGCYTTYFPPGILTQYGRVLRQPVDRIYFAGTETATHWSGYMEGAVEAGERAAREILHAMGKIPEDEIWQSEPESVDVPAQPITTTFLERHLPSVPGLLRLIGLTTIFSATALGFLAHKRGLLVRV

[5] = target: T2, Amine oxidase [flavin-containing] B; assay: Inhibition of human MAOB
[6] = target: T3, MAO-B (amine oxidase [flavin-containing] B) (Homo sapiens, UniProt P27338); assay: Inhibition of human MAOB at 1 uM relative to control
T3 sequence (P27338 whole entry): T2 sequence (P27338 whole entry)

[7] = target: T4, MAO-A (amine oxidase [flavin-containing] A) (Homo sapiens, UniProt P21397); assay: Inhibition of human MAOA at 1 uM relative to control
T4 sequence (P21397 whole entry): T1 sequence (P21397 whole entry)

[8] = target: T1, Amine oxidase [flavin-containing] A; assay: Inhibition of human MAOA
Homo sapiens [9] = organism: Homo sapiens; assay: Selectivity index, ratio of IC50 for human MAOA to IC50 for human MAOB
Homo sapiens [10] = organism: Homo sapiens; assay: Selectivity index, ratio of IC50 for inhibition of human MAOA to IC50 for IC50 for inhibition of human MAOB

IC50 [1]: 16 µM
Compound: Cc1ncc(/C=C/c2ccc(CN3CCOCC3)c(O)c2)c(CO)c1O

Ki [2]: 5.22 µM | Ratio Ki (Homo sapiens [3]): 16.8
Compound: CCc1ccc(/C=C/C(=O)c2ccc(Cl)s2)cc1

Ki [2]: 0.49 µM | Ratio Ki (Homo sapiens [3]): 0.19 | Ki [4]: 2.55 µM
Compound: O=C(/C=C/c1ccc([N+](=O)[O-])cc1)c1ccc(Cl)s1

Ki [5]: 0.027 µM
Compound: CCn1c(=O)c2c(nc(/C=C/c3ccc(OC)c(OC)c3)n2C)n(CC)c1=O [ISTRADEFYLLINE]

Ki [5]: 36 µM
Compound: Cn1c(=O)c2c(nc(-c3cccc(Cl)c3)n2C)n(C)c1=O

Ki [5]: 3.42 µM | inhibition at 1 µM [6]: 30.9% | inhibition at 1 µM [7]: 0%
Compound: Cn1c(=O)c2[nH]c(-c3cccc(NC(=O)/C=C/c4cccc(F)c4)c3)nc2n(C)c1=O

IC50 [5]: 0.2 µM | IC50 [8]: 39.7 µM | Ratio IC50 (Homo sapiens [9]): 189
Compound: O=C(SCCc1ccco1)c1cc2ccccc2oc1=O

IC50 [5]: > 40 µM
Compound: O=C1c2ccccc2C(=O)c2c(O)c(O)cc(O)c21 [PURPURIN]

Ratio IC50 (Homo sapiens [10]): 9e-07 | Ki [8]: 0.14 µM
Compound: COc1cc(C2=NN(C(=O)Oc3ccccc3)C(c3ccc(O)c(OC)c3)C2)ccc1O (configuration not stated)
